Laboratory results reported in patent US5458889A (priority 1986, dated 1995).
Like-named read-outs stand apart in the source and are kept apart here.

What was measured:
Format in all cases: cell-based
poliomyelitis virus = conditions: LiF, where present, 1 mg/l
cells [1] = assay: Study of threshold of cytotoxicity (LDO)
cells [2] = assay: Cell toxicity (Test 16); conditions: cytomegalo virus section
Description: The following results were obtained:

spermatozoa [3] = assay: total spermicidal test of IPPF (death of all spermatozoa of 0.2 ml sperm in less than 5 seconds); conditions: for MIC: 5 seconds
Procedure: The MIC of a chemical compound depends on this compound, but also on the conditions in which it is used, i.e. on the galenical form including the composition.
(§1) The test is carried out on at least 6 sperms from various donors, satisfying the following minimal conditions from IPPF:
age of the sample: two hours;
[…] : 50 million spermatozoa;
mobility: 50% of the spermatozoa should move forward fastly when examined at 35°-37° C. in a recent sample;
viscosity: ejaculum conveniently liquefied, not filaceous and homogeneous-looking with the naked eye;
collected in sterile glass tubes hermetically closed, preserved at 37° C.
The MIC of various known spermicidal compounds were determined with the IPPF test. The following results have been obtained by 1 milliliter of composition reacting with 0.2 milliliter of sperm and by determining the minimal concentration of the spermicidal compounds that induces the death of all the spermatozoa in 5 seconds, and this with 6 sperms from various donors.
The same total spermicidal test of IPPF was carried out with 1 milliliter of composition already containing 0.0001% (in weight) of fluoride anion F^- reacting upon 0.2 milliliter of sperm, by determining the minimal concentration of the spermicidal compounds that induces the death of all the spermatozoa in 5 seconds, and this with 6 sperms from various donors.
This test consists in realizing a test identical to tests N^.
Under the same conditions previously described (Tests N^. 1 to 3), various perfluorinated benzalkonium chlorides were used as basic spermicidal compounds. It was thus shown that perfluorinated benzalkonium chlorides have a spermicide activity similar to the one of the mere benzalkonium chloride. Besides, this activity remains identical to itself under the conditions of test N^.
Test N^. 2 was also realized on perfluorinated benzalkonium chloride mixed with another chemical compound capable of emitting ion F^-.

spermatozoa [4] = assay: IPPF spermicidal test on galenical preparations after in vitro simulation of in vivo conditions; conditions: Test 6, form originally containing 0.45% F^-
Procedure: as §1
This test in vitro was conducted on galenical preparations including benzalkonium chloride as basic active ingredient, by determining the MIC of this benzalkonium chloride after simulation in vitro of the actual conditions in vivo (extraction, solubilization . . . ).
The percentages correspond to the proportions (in weight) of benzalkonium chloride in the solution used in vitro for the spermicidal test according to IPPF and obtained after simulation, the proportions being measured by titrating using a sample taken off from the solution.
The same conditions as during the comparative test N^. 5 were used, but from galenical forms each originally containing 0.45% (in weight) of fluoride anion F^-.

spermatozoa [5] = assay: as above; conditions: Test 5, without activating ingredient
[6] = final concentration 20 mg/l, contact time 180 min
[7] = final concentration 50 mg/l, contact time 180 min
[8] = final concentration 100 mg/l, contact time 30 min
[9] = final concentration 100 mg/l, contact time 60 min
[10] = final concentration 100 mg/l, contact time 120 min
[11] = final concentration 100 mg/l, contact time 180 min
[12] = Test 1, without F^-, 6 sperms from various donors
[13] = Test 2, composition already containing 0.0001% (in weight) fluoride anion F^-, 6 sperms

Compound | Viral titre (poliomyelitis virus; [6]) | Viral titre (poliomyelitis virus; [7]) | Viral titre (poliomyelitis virus; [8]) | Viral titre (poliomyelitis virus; [9]) | Viral titre (poliomyelitis virus; [10]) | Viral titre (poliomyelitis virus; [11]) | threshold of cytotoxicity (LDO) (cells [1]; after filtration) | threshold of cytotoxicity (LDO) (cells [1]; before filtration) | Cell Toxicity (cells [2]) | MIC (spermatozoa [3]; [12]) | MIC (spermatozoa [3]; [13]) | also measured
Benzalkonium fluoride | 0 PFU/ml | 0 PFU/ml | 0 PFU/ml | 0 PFU/ml | 0 PFU/ml | 0 PFU/ml | 0.005% | 0.01% | 0.05% |  |  | Viral titre (poliomyelitis virus; final concentration 50 mg/l, contact time 120 min): 0 PFU/ml
p-menthanylphenylpolyoxyethylene ether |  |  |  |  |  |  |  |  |  | 0.006 % in weight | 0.003 % in weight | 
F [fluoride anion F^-] |  |  |  |  |  |  |  |  |  |  |  | spermicide activity (spermatozoa [3]; IPPF test, at a titer of 5 ppm (5 milligrams per liter), 0.0833333 min): 100%; spermicidal effect in presence of sodium borate (spermatozoa [3]; Test 3, sodium borate to complex ion F^-): totally disappeared; total spermicide activity according to the IPPF test (spermatozoa [3]; solution containing 0.0001% fluoride anion F^- alone): do not have a total spermicide activity
nonoxynol 9 |  |  |  |  |  |  |  |  |  | 0.006 % in weight | 0.003 % in weight | 
Benzalkonium chloride | 0 PFU/ml | 0 PFU/ml | 0 PFU/ml | 0 PFU/ml | 0 PFU/ml | 0 PFU/ml | 0.01% | 0.05% | 0.05% | 0.006 % in weight | 0.002 % in weight | Viral titre (poliomyelitis virus; final concentration 10 mg/l, contact time 180 min): ≈ 0 PFU/ml; total spermicide activity according to the IPPF test (spermatozoa [3]; solution containing 0.003% benzalkonium chloride alone): do not have a total spermicide activity; MIC of benzalkonium chloride (spermatozoa [4]; galenical form: cream): 0.0030 % in weight; MIC of benzalkonium chloride (spermatozoa [4]; galenical form: gel): 0.0033 % in weight; MIC of benzalkonium chloride (spermatozoa [4]; galenical form: ovule): 0.0023 % in weight; MIC of benzalkonium chloride (spermatozoa [4]; galenical form: soluble waffle): 0.0017 % in weight; MIC of benzalkonium chloride (spermatozoa [4]; galenical form: tablet): 0.0025 % in weight; MIC of benzalkonium chloride (spermatozoa [4]; galenical form: tampon): 0.0025 % in weight; MIC of benzalkonium chloride (spermatozoa [5]; galenical form: cream): 0.0083 % in weight; MIC of benzalkonium chloride (spermatozoa [5]; galenical form: gel): 0.0080 % in weight; MIC of benzalkonium chloride (spermatozoa [5]; galenical form: ovule): 0.0063 % in weight; MIC of benzalkonium chloride (spermatozoa [5]; galenical form: soluble waffle): 0.0080 % in weight; MIC of benzalkonium chloride (spermatozoa [5]; galenical form: tablet): 0.0095 % in weight; MIC of benzalkonium chloride (spermatozoa [5]; galenical form: tampon): 0.0075 % in weight
